According to patent US6914045B2, “Glycopeptide antibiotics” (Wyeth Holdings Corporation, priority 2001, dated 2005):
Values after ≈ are worked out from the molar mass of the structure shown.

What was measured:
Assay in all cases: in vitro antibacterial evaluation, MIC by broth dilution
Assay type in all cases: cell-based
Streptococcus sp. = settings: broth dilution, 18 hours at 35° C.
How it was run: (§1)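 Step 1: dilute antibiotic across 64-0.06 μg/mL in Muller-Hinton II […]. Step 2: inoculate at 5×10^5 CFU/mL.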

Escherichia coli = test system: Escherichia coli
How it was run: as §1

Enterococcus sp. = settings: broth dilution, 18 hours at 35° C.
How it was run: as §1

Staphylococcus sp. = settings: broth dilution, 18 hours at 35° C.; for MIC Staphylococcus aureus (GC 1131): strain GC 1131
How it was run: as §1

SMILES: CC(c1ccccc1)C1NC(=O)CNC(=O)C(CO)NC(=O)C(C(O)C2CNC(=N)N2C2OC(CO)C(O)C(O)C2O)NC(=O)C(C(O)C2CNC(=N)N2)NC(=O)C(Cc2ccc(OC3OC(CO)C(OC4OC5COC(c6ccc7c(c6)OCCO7)OC5C(O)C4O)C(O)C3O)cc2)NC1=O (stereo not drawn) [Example 149]
- MIC Streptococcus agalactiae (GC 4564) (Streptococcus sp.; Streptococcus agalactiae (GC 4564)): 1 µg/mL (≈ 0.694 µM)
- MIC Streptococcus pneumoniae (ATCC 6301) (Streptococcus sp.; Streptococcus pneumoniae (ATCC 6301)): <0.5 µg/mL
- MIC Streptococcus pneumoniae (GC 1894) (Streptococcus sp.; Streptococcus pneumoniae (GC 1894)): <0.5 µg/mL
- MIC Streptococcus pneumoniae (GC 4565) (Streptococcus sp.; Streptococcus pneumoniae (GC 4565)): 2 µg/mL (≈ 1.39 µM)
- MIC Streptococcus pyogenes (GC 4563) (Streptococcus sp.; Streptococcus pyogenes (GC 4563)): <0.5 µg/mL
- MIC Streptococcus pneumoniae (ATCC 6301) (Streptococcus sp.; strain ATCC 6301): <0.5 µg/mL
- MIC Streptococcus pneumoniae (GC 1894) (Streptococcus sp.; strain GC 1894): <0.5 µg/mL
- MIC Streptococcus pyogenes (GC 4563) (Streptococcus sp.; strain GC 4563): <0.5 µg/mL
- MIC Streptococcus agalactiae (GC 4564) (Streptococcus sp.; strain GC 4564): 1 µg/mL (≈ 0.694 µM)
- MIC Streptococcus pneumoniae (GC 4565) (Streptococcus sp.; strain GC 4565): 2 µg/mL (≈ 1.39 µM)
- MIC Escherichia coli (ATCC 25922) (Escherichia coli; strain ATCC 25922, 18 hours at 35° C.): >64 µg/mL
- MIC Escherichia coli (GC 4559) (Escherichia coli; strain GC 4559, 18 hours at 35° C.): 64 µg/mL (≈ 44.4 µM)
- MIC Escherichia coli (GC 4560) (Escherichia coli; strain GC 4560, 18 hours at 35° C.): <0.5 µg/mL
- MIC Enterococcus avium (GC 4558) (Enterococcus sp.; Enterococcus avium (GC 4558)): 8 µg/mL (≈ 5.55 µM)
- MIC Enterococcus faecalis (ATCC 29212) (Enterococcus sp.; Enterococcus faecalis (ATCC 29212)): 8 µg/mL (≈ 5.55 µM)
- MIC Enterococcus faecalis (GC 2242) (Enterococcus sp.; Enterococcus faecalis (GC 2242)): 8 µg/mL (≈ 5.55 µM)
- MIC Enterococcus faecalis (GC 2691) (Enterococcus sp.; Enterococcus faecalis (GC 2691)): 8 µg/mL (≈ 5.55 µM)
- MIC Enterococcus faecalis (GC 3059) (Enterococcus sp.; Enterococcus faecalis (GC 3059)): 8 µg/mL (≈ 5.55 µM)
- MIC Enterococcus faecalis (GC 4552) (Enterococcus sp.; Enterococcus faecalis (GC 4552)): 8 µg/mL (≈ 5.55 µM)
- MIC Enterococcus faecalis (GC 4553) (Enterococcus sp.; Enterococcus faecalis (GC 4553)): 8 µg/mL (≈ 5.55 µM)
- MIC Enterococcus faecalis (GC 4554) (Enterococcus sp.; Enterococcus faecalis (GC 4554)): 8 µg/mL (≈ 5.55 µM)
- MIC Enterococcus faecalis (GC 6189) (Enterococcus sp.; Enterococcus faecalis (GC 6189)): 8 µg/mL (≈ 5.55 µM)
- MIC Enterococcus faecium (GC 2243) (Enterococcus sp.; Enterococcus faecium (GC 2243)): 8 µg/mL (≈ 5.55 µM)
- MIC Enterococcus faecium (GC 4556) (Enterococcus sp.; Enterococcus faecium (GC 4556)): 8 µg/mL (≈ 5.55 µM)
- MIC Enterococcus faecium (GC 4557) (Enterococcus sp.; Enterococcus faecium (GC 4557)): 2 µg/mL (≈ 1.39 µM)
- MIC Enterococcus faecalis (ATCC 29212) (Enterococcus sp.; strain ATCC 29212): 8 µg/mL (≈ 5.55 µM)
- MIC Enterococcus faecalis (GC 2242) (Enterococcus sp.; strain GC 2242): 8 µg/mL (≈ 5.55 µM)
- MIC Enterococcus faecium (GC 2243) (Enterococcus sp.; strain GC 2243): 8 µg/mL (≈ 5.55 µM)
- MIC Enterococcus faecalis (GC 2691) (Enterococcus sp.; strain GC 2691): 8 µg/mL (≈ 5.55 µM)
- MIC Enterococcus faecalis (GC 3059) (Enterococcus sp.; strain GC 3059): 8 µg/mL (≈ 5.55 µM)
- MIC Enterococcus faecalis (GC 4552) (Enterococcus sp.; strain GC 4552): 8 µg/mL (≈ 5.55 µM)
- MIC Enterococcus faecalis (GC 4553) (Enterococcus sp.; strain GC 4553): 8 µg/mL (≈ 5.55 µM)
- MIC Enterococcus faecalis (GC 4554) (Enterococcus sp.; strain GC 4554): 8 µg/mL (≈ 5.55 µM)
- MIC Enterococcus faecium (GC 4556) (Enterococcus sp.; strain GC 4556): 8 µg/mL (≈ 5.55 µM)
- MIC Enterococcus faecium (GC 4557) (Enterococcus sp.; strain GC 4557): 2 µg/mL (≈ 1.39 µM)
- MIC Enterococcus avium (GC 4558) (Enterococcus sp.; strain GC 4558): 8 µg/mL (≈ 5.55 µM)
- MIC Enterococcus faecalis (GC 6189) (Enterococcus sp.; strain GC 6189): 8 µg/mL (≈ 5.55 µM)
- MIC Staphylococcus aureus (GC 1131) (Staphylococcus sp.; inoculum 5×10^5 CFU/mL): 2 µg/mL (≈ 1.39 µM)
- MIC Staphylococcus aureus (ATCC 29213) (Staphylococcus sp.; strain ATCC 29213): 2 µg/mL (≈ 1.39 µM)
- MIC Staphylococcus aureus (GC 1131) (Staphylococcus sp.): 2 µg/mL (≈ 1.39 µM)
- MIC Staphylococcus aureus (GC 3051) (Staphylococcus sp.; strain GC 3051): 2 µg/mL (≈ 1.39 µM)
- MIC Staphylococcus aureus (GC 3053) (Staphylococcus sp.; strain GC 3053): 4 µg/mL (≈ 2.78 µM)
- MIC Staphylococcus aureus (GC 4541) (Staphylococcus sp.; strain GC 4541): 2 µg/mL (≈ 1.39 µM)
- MIC Staphylococcus aureus (GC 4542) (Staphylococcus sp.; strain GC 4542): 2 µg/mL (≈ 1.39 µM)
- MIC Staphylococcus aureus-SMITH (GC 4543) (Staphylococcus sp.; strain GC 4543): 2 µg/mL (≈ 1.39 µM)
- MIC Staphylococcus aureus (GC 4544) (Staphylococcus sp.; strain GC 4544): 2 µg/mL (≈ 1.39 µM)
- MIC Staphylococcus aureus (GC 4545) (Staphylococcus sp.; strain GC 4545): 2 µg/mL (≈ 1.39 µM)
- MIC Staphylococcus haemolyticus (GC 4546) (Staphylococcus sp.; strain GC 4546): 1 µg/mL (≈ 0.694 µM)
- MIC Coagulase Negative Staphylococcus (GC 4547) (Staphylococcus sp.; strain GC 4547): 1 µg/mL (≈ 0.694 µM)
- MIC Coagulase Negative Staphylococcus (GC 4548) (Staphylococcus sp.; strain GC 4548): 1 µg/mL (≈ 0.694 µM)
- MIC Coagulase Negative Staphylococcus (GC 4549) (Staphylococcus sp.; strain GC 4549): 1 µg/mL (≈ 0.694 µM)
- MIC Coagulase Negative Staphylococcus (GC 4551) (Staphylococcus sp.; strain GC 4551): 1 µg/mL (≈ 0.694 µM)
- MIC Coagulase Negative Staphylococcus (GC 6257) (Staphylococcus sp.; strain GC 6257): 1 µg/mL (≈ 0.694 µM)
- MIC Staphylococcus aureus-SMITH (GC 4543) (Staphylococcus sp.; strain SMITH GC 4543): 2 µg/mL (≈ 1.39 µM)
